The nature of this series: recombinant barcode read abundance after kanamycin selection (control-corrected) (log10(CPM+1)); higher = more efficient recombination; sequences stand for … in AGTGCAGAGAAAATCGGCCAGTTTTCTCTGCCTGCAGTCCGCATGCCGT…AGATTTATGCAGCGGACTGCCTTTCTCCCAAAGTGATAAACCGGACAGTATCATGGACCGGTTTTCCCGGTAATCCGTATTTGCAAGGTTGGTTTCACT; site = the 11-nt target. In short, it runs like this:
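A vector carrying a T7-inducible recombinase and the last 73 bp of the bridge RNA received, by Gibson cloning, oligos encoding a promoter, target, barcode and the first 104 bridge RNA bases under J23119. The pooled constructs entered E. coli together with a donor plasmid by electroporation. Selection used chloramphenicol/ampicillin/kanamycin with 0.1 mM IPTG, with chloramphenicol/ampicillin LB agar as the control, each in two replicates. Recombination efficiency is the averaged, control-corrected counts-per-million of barcodes at recombinant junctions, reported as log10(CPM+1).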
On to “TAGCCCACTTGGGTTCTAACCTGTTGCGG (site TAGCCCACTCC)”, for which the “recombinant barcode read abundance (log10)” value is 1.35.

As to “TAGCCCACTTGGGTTCTAACCTGTTGCGG (site TAGCGCACTCC)”, the “recombinant barcode read abundance (log10)” value was 0.0188.

In the case of “TAGCCCACTTGGGTTCTAACCTGTTGCGG (site TAGCTCACTCC)”, the “recombinant barcode read abundance (log10)” value is 0.393.

For “TAGCCTACTTGGGTTCTAACCTGTTGCCG (site TAGCCTACTCG)”, the “recombinant barcode read abundance (log10)” value was 0.725.

On to “TAGCCTACTTGGGTTCTAACCTGTTGCCG (site TAGGCTCCTCG)”, for which the “recombinant barcode read abundance (log10)” value worked out at 0.0184.

For “TAGCCTACTTGGGTTCTAACCTGTTGCGA (site TAGCCTACTAC)”, the “recombinant barcode read abundance (log10)” value is 0.0304.

Regarding “TAGCCTACTTGGGTTCTAACCTGTTGCGA (site TAGCCTACTCC)”, the “recombinant barcode read abundance (log10)” value was determined as 0.416.

For the sequence “TAGCCTACTTGGGTTCTAACCTGTTGCGA (site TAGCCTACTGC)”, the “recombinant barcode read abundance (log10)” value was determined as 0.00843.

As to “TAGCCTACTTGGGTTCTAACCTGTTGCGA (site TAGCCTACTTC)”, the “recombinant barcode read abundance (log10)” value was found to be 1.2.

As to “TAGCCTACTTGGGTTCTAACCTGTTGCGC (site TAGCCTACTAC)”, the “recombinant barcode read abundance (log10)” value was 0.0597.

For “TAGCCTACTTGGGTTCTAACCTGTTGCGC (site TAGCCTACTCC)”, the “recombinant barcode read abundance (log10)” value stood at 0.0856.

For the sequence “TAGCCTACTTGGGTTCTAACCTGTTGCGC (site TAGCCTACTGC)”, the “recombinant barcode read abundance (log10)” value amounted to 1.84.

“TAGCCTACTTGGGTTCTAACCTGTTGCGC (site TAGCCTACTTC)”: the “recombinant barcode read abundance (log10)” value came to 0.0255.

Regarding “TAGCCTACTTGGGTTCTAACCTGTTGCGT (site TAGCCTACTAC)”, the “recombinant barcode read abundance (log10)” value amounted to 0.581.

In the case of “TAGCCTACTTGGGTTCTAACCTGTTGCGT (site TAGCCTACTCC)”, the “recombinant barcode read abundance (log10)” value is 0.0265.

Turning to “TAGCCTACTTGGGTTCTAACCTGTTGCGT (site TAGCCTACTGC)”, the “recombinant barcode read abundance (log10)” value was found to be 0.0357.

For “TAGCCTACTTGGGTTCTAACCTGTTGCGT (site TAGCCTACTTC)”, the “recombinant barcode read abundance (log10)” value amounted to 0.

Regarding “TAGCCTTCTTGGGTTCTAACCTGTTGCAG (site TAGCCTTCTCT)”, the “recombinant barcode read abundance (log10)” value came out at 1.14.

On to “TAGCCTTCTTGGGTTCTAACCTGTTGCAG (site TAGGCGTCTCT)”, for which the “recombinant barcode read abundance (log10)” value is 0.0752.

Regarding “TAGCGGACTTGGGTTCTAACCTGTTGCCT (site TAGCAGACTAG)”, the “recombinant barcode read abundance (log10)” value was 0.106.

Take “TAGCGGACTTGGGTTCTAACCTGTTGCCT (site TAGCCGACTAG)”: the “recombinant barcode read abundance (log10)” value was 0.

Regarding “TAGCGGACTTGGGTTCTAACCTGTTGCCT (site TAGCGGACTAG)”, the “recombinant barcode read abundance (log10)” value was 1.28.

In the case of “TAGCGGACTTGGGTTCTAACCTGTTGCCT (site TAGCTGACTAG)”, the “recombinant barcode read abundance (log10)” value was 0.0737.

As for “TAGCGTCCTTGGGTTCTAACCTGTTGCAC (site TAGCGTCCTGT)”, the “recombinant barcode read abundance (log10)” value is 1.11.

“TAGCGTCCTTGGGTTCTAACCTGTTGCAC (site TCGCGTCCTTT)”: the “recombinant barcode read abundance (log10)” value turned out to be 0.157.

Consider “TAGCTCCCTTGGGTTCTAACCTGTTGCCA (site TAGCTCCCTAG)”, for which the “recombinant barcode read abundance (log10)” value came to 0.676.

As to “TAGCTCCCTTGGGTTCTAACCTGTTGCCA (site TAGCTCCCTCG)”, the “recombinant barcode read abundance (log10)” value was 0.0851.

As for “TAGCTCCCTTGGGTTCTAACCTGTTGCCA (site TAGCTCCCTGG)”, the “recombinant barcode read abundance (log10)” value was found to be 0.0734.

Turning to “TAGCTCCCTTGGGTTCTAACCTGTTGCCA (site TAGCTCCCTTG)”, the “recombinant barcode read abundance (log10)” value was found to be 0.662.

Regarding “TAGCTTACTTGGGTTCTAACCTGTTGCCG (site TAACTTACTAG)”, the “recombinant barcode read abundance (log10)” value was 0.114.

“TAGCTTACTTGGGTTCTAACCTGTTGCCG (site TAGCTTACTCG)”: the “recombinant barcode read abundance (log10)” value amounted to 0.523.

Consider “TAGGATACTTGGGTTCTAACCTGTTGCAA (site TAGGATACTAT)”, for which the “recombinant barcode read abundance (log10)” value amounted to 0.0732.

As to “TAGGATACTTGGGTTCTAACCTGTTGCAA (site TAGGATACTCT)”, the “recombinant barcode read abundance (log10)” value was determined as 0.401.

In the case of “TAGGATACTTGGGTTCTAACCTGTTGCAA (site TAGGATACTGT)”, the “recombinant barcode read abundance (log10)” value is 0.0992.

As to “TAGGATACTTGGGTTCTAACCTGTTGCAA (site TAGGATACTTT)”, the “recombinant barcode read abundance (log10)” value was found to be 1.98.

For the sequence “TAGGATTCTTGGGTTCTAACCTGTTGCGC (site ACCATACCTAT)”, the “recombinant barcode read abundance (log10)” value was 0.114.

With “TAGGATTCTTGGGTTCTAACCTGTTGCGC (site TAGGATTCTGC)”, the “recombinant barcode read abundance (log10)” value stood at 2.55.

For the sequence “TAGGATTCTTGGGTTCTAACCTGTTGCGT (site TAGGATGCTAC)”, the “recombinant barcode read abundance (log10)” value amounted to 0.144.

Turning to “TAGGATTCTTGGGTTCTAACCTGTTGCGT (site TAGGATTCTAC)”, the “recombinant barcode read abundance (log10)” value was 2.61.

Turning to “TAGGCATCTTGGGTTCTAACCTGTTGCTC (site TAGACATCTGA)”, the “recombinant barcode read abundance (log10)” value came out at 0.206.

Turning to “TAGGCATCTTGGGTTCTAACCTGTTGCTC (site TAGCCATCTGA)”, the “recombinant barcode read abundance (log10)” value is 0.36.

As for “TAGGCATCTTGGGTTCTAACCTGTTGCTC (site TAGGCATCTGA)”, the “recombinant barcode read abundance (log10)” value worked out at 0.95.

In the case of “TAGGCATCTTGGGTTCTAACCTGTTGCTC (site TAGTCATCTGA)”, the “recombinant barcode read abundance (log10)” value amounted to 0.115.

Turning to “TAGGCCACTTGGGTTCTAACCTGTTGCTT (site TAGGCCACTAA)”, the “recombinant barcode read abundance (log10)” value is 1.61.

As to “TAGGCCACTTGGGTTCTAACCTGTTGCTT (site TAGGCCACTAC)”, the “recombinant barcode read abundance (log10)” value came to 1.17.

As for “TAGGCCACTTGGGTTCTAACCTGTTGCTT (site TAGGCCACTAG)”, the “recombinant barcode read abundance (log10)” value was found to be 0.36.

For “TAGGCCACTTGGGTTCTAACCTGTTGCTT (site TAGGCCACTAT)”, the “recombinant barcode read abundance (log10)” value came to 0.539.

With “TAGGCGACTTGGGTTCTAACCTGTTGCCA (site ACCTTAGCTAA)”, the “recombinant barcode read abundance (log10)” value was determined as 0.119.

In the case of “TAGGCGACTTGGGTTCTAACCTGTTGCCA (site TAGGCGACTTG)”, the “recombinant barcode read abundance (log10)” value was 0.186.

As for “TAGGCTACTTGGGTTCTAACCTGTTGCAG (site TAGGCTACTAT)”, the “recombinant barcode read abundance (log10)” value was determined as 0.206.

Consider “TAGGCTACTTGGGTTCTAACCTGTTGCAG (site TAGGCTACTCT)”, for which the “recombinant barcode read abundance (log10)” value amounted to 1.97.

For “TAGGCTACTTGGGTTCTAACCTGTTGCAG (site TAGGCTACTGT)”, the “recombinant barcode read abundance (log10)” value stood at 0.0351.

For the sequence “TAGGCTACTTGGGTTCTAACCTGTTGCAG (site TAGGCTACTTT)”, the “recombinant barcode read abundance (log10)” value came to 0.216.

With “TAGGCTACTTGGGTTCTAACCTGTTGCAT (site TAGGCTACTAT)”, the “recombinant barcode read abundance (log10)” value amounted to 1.06.

As for “TAGGCTACTTGGGTTCTAACCTGTTGCAT (site TAGGCTACTCT)”, the “recombinant barcode read abundance (log10)” value turned out to be 0.301.

As for “TAGGCTACTTGGGTTCTAACCTGTTGCAT (site TAGGCTACTGT)”, the “recombinant barcode read abundance (log10)” value was 0.132.

“TAGGCTACTTGGGTTCTAACCTGTTGCAT (site TAGGCTACTTT)”: the “recombinant barcode read abundance (log10)” value worked out at 0.00693.

For the sequence “TAGGGAGCTTGGGTTCTAACCTGTTGCAT (site TAGAGAGCTCT)”, the “recombinant barcode read abundance (log10)” value stood at 0.0779.

On to “TAGGGAGCTTGGGTTCTAACCTGTTGCAT (site TAGGGAGCTAT)”, for which the “recombinant barcode read abundance (log10)” value stood at 2.8.

Regarding “TAGGGCACTTGGGTTCTAACCTGTTGCCG (site TAGGGCACTCA)”, the “recombinant barcode read abundance (log10)” value is 0.119.

On to “TAGGGCACTTGGGTTCTAACCTGTTGCCG (site TAGGGCACTCG)”, for which the “recombinant barcode read abundance (log10)” value stood at 1.58.

Take “TAGGGCCCTTGGGTTCTAACCTGTTGCCT (site AAGGGCCCTAG)”: the “recombinant barcode read abundance (log10)” value was determined as 0.111.

“TAGGGCCCTTGGGTTCTAACCTGTTGCCT (site CAGGGCCCTAG)”: the “recombinant barcode read abundance (log10)” value is 0.0445.

Regarding “TAGGGCCCTTGGGTTCTAACCTGTTGCCT (site GAGGGCCCTAG)”, the “recombinant barcode read abundance (log10)” value stood at 0.0503.

For the sequence “TAGGGCCCTTGGGTTCTAACCTGTTGCCT (site TAGGGCCCTAG)”, the “recombinant barcode read abundance (log10)” value was found to be 1.15.

Regarding “TAGGGTACTTGGGTTCTAACCTGTTGCGC (site ACAACCTCTCG)”, the “recombinant barcode read abundance (log10)” value stood at 0.0219.

“TAGGGTACTTGGGTTCTAACCTGTTGCGC (site TAGGGTACTGC)”: the “recombinant barcode read abundance (log10)” value came to 2.85.

Consider “TAGGTACCTTGGGTTCTAACCTGTTGCAT (site TAGGTACCTAT)”, for which the “recombinant barcode read abundance (log10)” value amounted to 1.98.

Turning to “TAGGTACCTTGGGTTCTAACCTGTTGCAT (site TAGGTCCCTAT)”, the “recombinant barcode read abundance (log10)” value worked out at 0.223.

As to “TAGGTACCTTGGGTTCTAACCTGTTGCAT (site TAGGTGCCTAT)”, the “recombinant barcode read abundance (log10)” value worked out at 0.0753.

With “TAGGTACCTTGGGTTCTAACCTGTTGCAT (site TAGGTTCCTAT)”, the “recombinant barcode read abundance (log10)” value is 0.0968.

On to “TAGGTCGCTTGGGTTCTAACCTGTTGCAT (site TAGATCGCTCT)”, for which the “recombinant barcode read abundance (log10)” value turned out to be 0.171.

With “TAGGTCGCTTGGGTTCTAACCTGTTGCAT (site TAGGTCGCTAT)”, the “recombinant barcode read abundance (log10)” value was found to be 2.48.

On to “TAGGTGACTTGGGTTCTAACCTGTTGCGG (site TAGGTGACTCC)”, for which the “recombinant barcode read abundance (log10)” value amounted to 2.13.

“TAGGTGACTTGGGTTCTAACCTGTTGCGG (site TAGGTGCCTCC)”: the “recombinant barcode read abundance (log10)” value worked out at 0.285.

For “TAGGTGGCTTGGGTTCTAACCTGTTGCCT (site TAGGTGGCTAG)”, the “recombinant barcode read abundance (log10)” value was 0.463.

For the sequence “TAGGTGGCTTGGGTTCTAACCTGTTGCCT (site TGGGCGGCTAG)”, the “recombinant barcode read abundance (log10)” value came to 0.105.

These data come from the supplement of paper PMC11208160.
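Note: IS621 recombinase and bridge RNA in Escherichia coli cells.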
